According to patent US20240279240A1, “HETEROCYCLIC DERIVATIVES AS JANUS KINASE INHIBITORS” (CHIESI FARMACEUTICI S.P.A., priority 2021, published 2024):

Tests used:
JAK 1 = JAK 1 (Homo sapiens, UniProt P23458); test: Biochemical potency on JAK1, TR-FRET LANCE Ultra kinase assay (examples 1-99); conditions: ATP at Km (20 μM), read-out: JAK1 inhibitory activity (pIC50 class) (converted)
Summary of the method: (§1)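 LANCE Ultra TR-FRET with ULight-JAK-1 (Tyr1023) peptide at 30/50/20/10 nM and ATP (~Km) at 20/0.7/0.2/12 μM for JAK1/JAK2/JAK3/TYK2; enzymes 0.15/0.083/0.025/0.144 ng/μL. 1.5 h at r.t., EDTA stop, Eu-anti-phosphotyrosine read. 11-point 5-fold series from 20 μM; IC50 by variable-slope fit.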

JAK 2 = JAK 2 (Homo sapiens, UniProt O60674); test: Biochemical potency on JAK2, TR-FRET LANCE Ultra kinase assay (examples 1-99); conditions: ATP at Km (0.7 μM), read-out: JAK2 inhibitory activity (pIC50 class) (converted)
Sequence of JAK 2 (O60674 whole entry): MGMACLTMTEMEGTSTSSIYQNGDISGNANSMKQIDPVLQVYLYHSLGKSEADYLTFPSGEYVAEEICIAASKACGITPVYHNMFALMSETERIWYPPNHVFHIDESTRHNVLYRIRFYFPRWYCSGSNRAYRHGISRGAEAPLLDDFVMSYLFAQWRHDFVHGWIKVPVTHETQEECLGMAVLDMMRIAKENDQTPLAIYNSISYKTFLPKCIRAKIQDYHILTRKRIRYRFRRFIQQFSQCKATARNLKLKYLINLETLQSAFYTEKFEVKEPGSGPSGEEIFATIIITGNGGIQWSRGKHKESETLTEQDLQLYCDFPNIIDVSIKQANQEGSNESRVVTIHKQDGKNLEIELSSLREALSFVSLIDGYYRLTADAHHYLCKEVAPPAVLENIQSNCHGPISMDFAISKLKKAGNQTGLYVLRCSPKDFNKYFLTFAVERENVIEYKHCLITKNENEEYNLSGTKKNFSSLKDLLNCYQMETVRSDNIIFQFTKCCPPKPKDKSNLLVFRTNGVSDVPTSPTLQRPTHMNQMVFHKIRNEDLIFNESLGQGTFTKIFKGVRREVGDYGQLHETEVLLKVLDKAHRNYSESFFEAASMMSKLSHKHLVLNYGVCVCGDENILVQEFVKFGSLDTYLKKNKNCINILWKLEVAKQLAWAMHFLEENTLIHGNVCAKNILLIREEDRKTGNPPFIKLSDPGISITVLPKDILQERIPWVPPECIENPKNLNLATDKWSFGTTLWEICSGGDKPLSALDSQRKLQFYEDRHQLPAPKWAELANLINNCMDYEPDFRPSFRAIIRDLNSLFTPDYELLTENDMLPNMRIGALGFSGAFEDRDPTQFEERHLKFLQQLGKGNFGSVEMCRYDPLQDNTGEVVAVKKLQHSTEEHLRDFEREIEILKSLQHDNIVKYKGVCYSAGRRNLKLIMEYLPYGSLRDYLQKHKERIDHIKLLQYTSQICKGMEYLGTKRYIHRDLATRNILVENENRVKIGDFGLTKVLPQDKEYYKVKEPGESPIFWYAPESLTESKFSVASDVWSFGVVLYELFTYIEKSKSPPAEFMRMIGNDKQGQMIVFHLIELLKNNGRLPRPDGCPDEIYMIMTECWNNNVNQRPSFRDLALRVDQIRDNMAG
Summary of the method: as §1

JAK 3 = target: T1, JAK 3 (Homo sapiens, UniProt P52333); test: Biochemical potency on JAK3, TR-FRET LANCE Ultra kinase assay (examples 1-99); conditions: ATP at Km (0.2 μM), read-out: JAK3 inhibitory activity (pIC50 class) (converted)
T1 sequence (P52333 1-1124): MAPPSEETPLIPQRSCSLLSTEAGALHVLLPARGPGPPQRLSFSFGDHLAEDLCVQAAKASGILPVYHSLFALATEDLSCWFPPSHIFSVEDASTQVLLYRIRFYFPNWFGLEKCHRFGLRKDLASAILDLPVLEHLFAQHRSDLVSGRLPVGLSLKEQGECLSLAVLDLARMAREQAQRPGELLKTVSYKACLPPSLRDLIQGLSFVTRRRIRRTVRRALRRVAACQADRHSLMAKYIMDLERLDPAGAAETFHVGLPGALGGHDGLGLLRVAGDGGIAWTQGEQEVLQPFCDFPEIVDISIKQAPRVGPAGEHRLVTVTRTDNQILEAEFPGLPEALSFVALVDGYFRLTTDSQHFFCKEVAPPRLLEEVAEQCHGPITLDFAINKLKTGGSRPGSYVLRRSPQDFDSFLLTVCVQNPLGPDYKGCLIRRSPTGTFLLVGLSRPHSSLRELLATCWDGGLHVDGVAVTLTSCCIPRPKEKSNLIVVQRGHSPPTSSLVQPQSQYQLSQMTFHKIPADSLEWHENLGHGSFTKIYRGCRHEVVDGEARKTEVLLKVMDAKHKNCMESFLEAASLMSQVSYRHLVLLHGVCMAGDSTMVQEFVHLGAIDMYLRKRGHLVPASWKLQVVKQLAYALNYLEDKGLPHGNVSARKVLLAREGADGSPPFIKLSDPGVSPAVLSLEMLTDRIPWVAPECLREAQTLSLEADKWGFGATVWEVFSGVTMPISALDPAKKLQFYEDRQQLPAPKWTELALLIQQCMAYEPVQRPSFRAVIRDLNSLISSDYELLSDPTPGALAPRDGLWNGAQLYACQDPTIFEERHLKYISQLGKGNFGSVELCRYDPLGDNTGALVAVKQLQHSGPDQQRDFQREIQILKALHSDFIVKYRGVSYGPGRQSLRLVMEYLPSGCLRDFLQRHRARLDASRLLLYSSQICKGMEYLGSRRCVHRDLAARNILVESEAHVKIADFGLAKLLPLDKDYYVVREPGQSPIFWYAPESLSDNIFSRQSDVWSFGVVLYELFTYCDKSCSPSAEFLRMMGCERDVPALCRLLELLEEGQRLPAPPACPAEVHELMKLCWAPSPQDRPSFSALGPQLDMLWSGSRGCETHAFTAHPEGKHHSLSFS
Summary of the method: as §1

TYK2 = TYK2 (Homo sapiens, UniProt P29597); test: Biochemical potency on Tyk2, TR-FRET LANCE Ultra kinase assay (examples 1-99); conditions: ATP at Km (12 μM), read-out: Tyk2 inhibitory activity (pIC50 class) (converted)
Sequence of TYK2 (P29597 whole entry): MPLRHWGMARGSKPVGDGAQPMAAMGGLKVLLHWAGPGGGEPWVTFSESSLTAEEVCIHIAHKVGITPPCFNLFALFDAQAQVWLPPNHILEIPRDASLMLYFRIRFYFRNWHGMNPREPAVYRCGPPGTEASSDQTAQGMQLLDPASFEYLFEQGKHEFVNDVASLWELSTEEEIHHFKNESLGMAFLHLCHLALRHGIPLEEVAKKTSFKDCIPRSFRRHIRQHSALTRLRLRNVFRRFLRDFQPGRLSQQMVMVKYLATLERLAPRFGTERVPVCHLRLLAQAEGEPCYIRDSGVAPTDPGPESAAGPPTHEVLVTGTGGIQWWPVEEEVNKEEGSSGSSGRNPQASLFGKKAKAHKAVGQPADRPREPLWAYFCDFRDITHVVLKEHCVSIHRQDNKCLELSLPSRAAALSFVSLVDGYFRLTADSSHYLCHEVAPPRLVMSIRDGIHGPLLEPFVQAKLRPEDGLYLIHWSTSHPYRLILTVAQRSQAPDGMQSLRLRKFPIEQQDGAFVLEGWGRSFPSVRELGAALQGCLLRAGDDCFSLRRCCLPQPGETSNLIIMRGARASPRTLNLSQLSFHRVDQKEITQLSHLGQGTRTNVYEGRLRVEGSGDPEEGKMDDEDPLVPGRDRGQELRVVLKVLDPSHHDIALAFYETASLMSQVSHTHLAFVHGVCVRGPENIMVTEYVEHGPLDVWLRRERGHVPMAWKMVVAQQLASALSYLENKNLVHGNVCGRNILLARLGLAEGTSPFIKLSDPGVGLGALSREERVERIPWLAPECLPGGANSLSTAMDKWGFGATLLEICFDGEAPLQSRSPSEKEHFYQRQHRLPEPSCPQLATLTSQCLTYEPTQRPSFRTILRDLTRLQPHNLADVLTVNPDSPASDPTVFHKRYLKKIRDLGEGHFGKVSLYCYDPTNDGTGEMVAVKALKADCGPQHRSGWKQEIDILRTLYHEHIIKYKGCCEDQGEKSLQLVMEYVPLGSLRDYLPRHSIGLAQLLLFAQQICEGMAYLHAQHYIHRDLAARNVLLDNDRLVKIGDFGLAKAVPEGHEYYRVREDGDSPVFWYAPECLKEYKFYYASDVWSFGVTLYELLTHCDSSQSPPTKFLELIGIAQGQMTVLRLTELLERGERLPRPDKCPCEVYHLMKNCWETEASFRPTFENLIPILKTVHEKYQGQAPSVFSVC
Summary of the method: as §1

Sequence of JAK 1 (P23458 whole entry): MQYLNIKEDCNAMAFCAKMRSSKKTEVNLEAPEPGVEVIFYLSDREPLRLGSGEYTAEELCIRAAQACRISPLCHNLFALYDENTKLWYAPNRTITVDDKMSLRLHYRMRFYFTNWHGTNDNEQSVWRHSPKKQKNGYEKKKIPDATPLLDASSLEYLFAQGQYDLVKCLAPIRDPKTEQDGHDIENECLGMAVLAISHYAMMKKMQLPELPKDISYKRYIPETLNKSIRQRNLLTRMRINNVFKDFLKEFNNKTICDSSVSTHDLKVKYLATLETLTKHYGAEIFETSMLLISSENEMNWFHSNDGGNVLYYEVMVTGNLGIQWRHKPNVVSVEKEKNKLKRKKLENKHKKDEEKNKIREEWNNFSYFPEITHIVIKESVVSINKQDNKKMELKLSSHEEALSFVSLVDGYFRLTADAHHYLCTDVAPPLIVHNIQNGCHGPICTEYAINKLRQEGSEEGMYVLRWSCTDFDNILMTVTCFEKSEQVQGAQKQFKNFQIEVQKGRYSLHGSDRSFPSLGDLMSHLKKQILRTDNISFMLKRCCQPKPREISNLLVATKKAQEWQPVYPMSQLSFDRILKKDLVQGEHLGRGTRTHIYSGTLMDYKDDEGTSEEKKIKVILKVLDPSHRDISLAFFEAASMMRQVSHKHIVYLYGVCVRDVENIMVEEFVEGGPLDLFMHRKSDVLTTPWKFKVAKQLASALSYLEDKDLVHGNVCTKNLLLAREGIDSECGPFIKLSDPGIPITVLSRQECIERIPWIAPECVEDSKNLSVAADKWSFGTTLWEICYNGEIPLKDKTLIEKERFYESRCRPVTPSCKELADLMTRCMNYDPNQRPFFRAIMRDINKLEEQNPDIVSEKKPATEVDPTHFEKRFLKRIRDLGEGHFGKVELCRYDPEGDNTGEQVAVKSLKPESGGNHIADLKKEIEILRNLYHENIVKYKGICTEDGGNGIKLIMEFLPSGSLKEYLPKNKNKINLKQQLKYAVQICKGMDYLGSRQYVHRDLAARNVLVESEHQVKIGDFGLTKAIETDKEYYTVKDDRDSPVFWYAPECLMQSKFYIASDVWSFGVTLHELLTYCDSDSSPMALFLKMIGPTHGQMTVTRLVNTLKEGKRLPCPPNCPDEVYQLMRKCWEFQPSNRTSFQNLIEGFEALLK

Structure (SMILES) | IC50 (JAK 1) [nM] | IC50 (JAK 2) [nM] | IC50 (JAK 3) [nM] | IC50 (TYK2) [nM]
COc1ccc(OC)c(-n2nc(C)c3cnc(-c4cnn5cccnc45)cc32)c1 [Example 8, 1-(2,5-dimethoxyphenyl)-3-methyl-6-(pyrazolo[1,5-a]pyrimidin-3-yl)-1H-pyrazolo[4,3-c]pyridine] | 5.01 to 50.1 | ≤ 5.01 | 5.01 to 50.1 | > 50.1
N#CCc1nn(-c2cc(Cl)ccc2OC(F)F)c2cc(-c3cnn4cccnc34)ncc12 [Example 28, 2-(1-(5-chloro-2-(difluoromethoxy)phenyl)-6-(pyrazolo[1,5-a]pyrimidin-3-yl)-1H-pyrazolo[4,3-c]pyridin-3-yl)acetonitrile] | ≤ 5.01 | ≤ 5.01 | ≤ 5.01 | 5.01 to 50.1
COc1ccc(Cl)cc1-n1ncc2c(O)nc(-c3cnn4cccnc34)cc21 [Example 57, 1-(5-chloro-2-methoxyphenyl)-6-(pyrazolo[1,5-a]pyrimidin-3-yl)-1H-pyrazolo[4,3-c]pyridin-4-ol] | 5.01 to 50.1 | ≤ 5.01 | 5.01 to 50.1 | 5.01 to 50.1
COc1ccc(Cl)cc1-n1nc(N2CCN(C(C)=O)CC2)c2cnc(-c3cnn4cccnc34)cc21 [Example 47, 1-(4-(1-(5-chloro-2-methoxyphenyl)-6-(pyrazolo[1,5-a]pyrimidin-3-yl)-1H-pyrazolo[4,3-c]pyridin-3-yl)piperazin-1-yl)ethan-1-one] | 5.01 to 50.1 | 5.01 to 50.1 | 5.01 to 50.1 | > 50.1
COc1ccc(S(=O)(=O)NCCO)cc1-n1nc(C)c2cnc(-c3cnn4cccnc34)cc21 [Example 15, N-(2-hydroxyethyl)-4-methoxy-3-(3-methyl-6-(pyrazolo[1,5-a]pyrimidin-3-yl)-1H-pyrazolo[4,3-c]pyridin-1-yl)benzenesulfonamide] | 5.01 to 50.1 | ≤ 5.01 | 5.01 to 50.1 | > 50.1
COc1ccc(Cl)cc1-n1nc(C(=O)N[C@H]2C[C@H](N)C2)c2cnc(-c3cnn4cccnc34)cc21 [Example 77, N-((1r,3r)-3-aminocyclobutyl)-1-(5-chloro-2-methoxyphenyl)-6-(pyrazolo[1,5-a]pyrimidin-3-yl)-1H-pyrazolo[4,3-c]pyridine-3-carboxamide] | 5.01 to 50.1 | 5.01 to 50.1 | 5.01 to 50.1 | 5.01 to 50.1
COc1ccc(F)cc1-n1nc(C(=O)NCCCN(C)C)c2cnc(-c3cnn4cccnc34)cc21 [Example 38, N-(3-(dimethylamino)propyl)-1-(5-fluoro-2-methoxyphenyl)-6-(pyrazolo[1,5-a]pyrimidin-3-yl)-1H-pyrazolo[4,3-c]pyridine-3-carboxamide] | 5.01 to 50.1 | 5.01 to 50.1 | 5.01 to 50.1 | > 50.1
Cc1nn(-c2cc(Cl)ccc2OC(F)F)c2cc(Nc3ncc[nH]c3=O)ncc12 [Example 99, 3-((1-(5-chloro-2-(difluoromethoxy)phenyl)-3-methyl-1H-pyrazolo[4,3-c]pyridin-6-yl)amino)pyrazin-2(1H)-one] | ≤ 5.01 | ≤ 5.01 | ≤ 5.01 | 5.01 to 50.1
COc1ccc(Cl)cc1-n1nc(OC)c2cnc(-c3cnn4cccnc34)cc21 [Example 50, 1-(5-chloro-2-methoxyphenyl)-3-methoxy-6-(pyrazolo[1,5-a]pyrimidin-3-yl)-1H-pyrazolo[4,3-c]pyridine] | 5.01 to 50.1 | 5.01 to 50.1 | 5.01 to 50.1 | 5.01 to 50.1
COc1ccc(S(C)(=O)=O)cc1-n1nc(NCCN2CCOCC2)c2cnc(-c3cnn4cccnc34)cc21 [Example 43, 1-(2-methoxy-5-(methylsulfonyl)phenyl)-N-(2-morpholinoethyl)-6-(pyrazolo[1,5-a]pyrimidin-3-yl)-1H-pyrazolo[4,3-c]pyridin-3-amine] | 5.01 to 50.1 | 5.01 to 50.1 | 5.01 to 50.1 | > 50.1
COc1ccc(C(F)F)cc1-n1nc(NCCN(C)C)c2cnc(-c3cnn4cccnc34)cc21 [Example 44, N1-(1-(5-(difluoromethyl)-2-methoxyphenyl)-6-(pyrazolo[1,5-a]pyrimidin-3-yl)-1H-pyrazolo[4,3-c]pyridin-3-yl)-N2,N2-dimethylethane-1,2-diamine] | 5.01 to 50.1 | ≤ 5.01 | 5.01 to 50.1 | 5.01 to 50.1
CNC(=O)c1nn(-c2cc(Cl)ccc2OC(F)F)c2cc(-c3cnn4cccnc34)ncc12 [Example 33, 1-(5-chloro-2-(difluoromethoxy)phenyl)-N-methyl-6-(pyrazolo[1,5-a]pyrimidin-3-yl)-1H-pyrazolo[4,3-c]pyridine-3-carboxamide] | ≤ 5.01 | ≤ 5.01 | ≤ 5.01 | 5.01 to 50.1
COc1ccc(Cl)cc1-n1nc(N2CCNCC2)c2cnc(-c3cnn4cccnc34)cc21 [Example 48, 1-(5-chloro-2-methoxyphenyl)-3-(piperazin-1-yl)-6-(pyrazolo[1,5-a]pyrimidin-3-yl)-1H-pyrazolo[4,3-c]pyridine] | 5.01 to 50.1 | 5.01 to 50.1 | 5.01 to 50.1 | 5.01 to 50.1
COc1ccc(F)cc1-n1nc(C(=O)NCCCN(C)C)c2cnc(Nc3ncc[nH]c3=O)cc21 [Example 96, N-(3-(dimethylamino)propyl)-1-(5-fluoro-2-methoxyphenyl)-6-((3-oxo-3,4-dihydropyrazin-2-yl)amino)-1H-pyrazolo[4,3-c]pyridine-3-carboxamide] | 5.01 to 50.1 | 5.01 to 50.1 | 5.01 to 50.1 | 5.01 to 50.1
COc1cc(O)c(Cl)cc1-n1nc(C)c2cnc(-c3cnn4cccnc34)cc21 [Example 59, 2-chloro-5-methoxy-4-(3-methyl-6-(pyrazolo[1,5-a]pyrimidin-3-yl)-1H-pyrazolo[4,3-c]pyridin-1-yl)phenol] | ≤ 5.01 | ≤ 5.01 | ≤ 5.01 | 5.01 to 50.1
O=C(c1nn(-c2cc(Cl)ccc2OC(F)F)c2cc(-c3cnn4cccnc34)ncc12)N1CCS(=O)(=O)CC1 [Example 35, (1-(5-chloro-2-(difluoromethoxy)phenyl)-6-(pyrazolo[1,5-a]pyrimidin-3-yl)-1H-pyrazolo[4,3-c]pyridin-3-yl)(1,1-dioxidothiomorpholino)methanone] | 5.01 to 50.1 | 5.01 to 50.1 | 5.01 to 50.1 | 5.01 to 50.1
CNC(=O)CNc1nc(-c2cnn3cccnc23)cc2c1cnn2-c1cc(Cl)ccc1OC [Example 54, 2-((1-(5-chloro-2-methoxyphenyl)-6-(pyrazolo[1,5-a]pyrimidin-3-yl)-1H-pyrazolo[4,3-c]pyridin-4-yl)amino)-N-methylacetamide] | 5.01 to 50.1 | 5.01 to 50.1 | 5.01 to 50.1 | > 50.1
Cc1nn(-c2cc(SC3CCNCC3)ccc2OC(F)F)c2cc(-c3cnn4cccnc34)ncc12 [Example 74, 1-(2-(difluoromethoxy)-5-(piperidin-4-ylthio)phenyl)-3-methyl-6-(pyrazolo[1,5-a]pyrimidin-3-yl)-1H-pyrazolo[4,3-c]pyridine] | > 50.1 | 5.01 to 50.1 | 5.01 to 50.1 | > 50.1
Cc1nn(-c2cc(Cl)ccc2O)c2cc(-c3cnn4cccnc34)ncc12 [Example 12, 4-chloro-2-(3-methyl-6-(pyrazolo[1,5-a]pyrimidin-3-yl)-1H-pyrazolo[4,3-c]pyridin-1-yl)phenol] | 5.01 to 50.1 | ≤ 5.01 | 5.01 to 50.1 | 5.01 to 50.1
CN(C)Cc1nn(-c2cc(Cl)ccc2OC(F)F)c2cc(-c3cnn4cccnc34)ncc12 [Example 30, 1-(1-(5-chloro-2-(difluoromethoxy)phenyl)-6-(pyrazolo[1,5-a]pyrimidin-3-yl)-1H-pyrazolo[4,3-c]pyridin-3-yl)-N,N-dimethylmethanamine] | 5.01 to 50.1 | 5.01 to 50.1 | 5.01 to 50.1 | > 50.1
